Source: the supplement of paper PMC11208160

experiment: recombinant UMI read abundance after kanamycin selection (control-corrected) (log10(CPM+1)); higher = more efficient recombination; extreme values may be limits of the assay; sequences stand for … in AGTGCAGAGAAAATCGGCCAGTTTTCTCTGCCTGCAGTCCGCATGCCGTGGGACCCCTTGGGTTCTAACCTGTTGCCTAGATTTATGCAGCGGACTGCCTTTCTCCCAAAGTGATAAACCGG…AGGTTGGTTTCACT; site = the 11-nt donor
Procedure, shortened: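 After plating on IPTG (0.07 mM) plus kanamycin, or unselected, in two replicates, recombinant UMIs were PCR-amplified across the donor–target junction and sequenced. The cells were Escherichia coli co-electroporated with a UMI-tagged donor and donor-binding-loop pair library and a target plasmid with a fixed target and T7-inducible IS621 bridge recombinase. Values are log10(CPM+1), with CPM averaged over replicates and scaled by control-derived factors.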
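Further: IS621 bridge recombinase in Escherichia coli cells against a fixed T5 target plasmid.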

Sequence | recombinant UMI read abundance (log10)
GCTTGCCCATGGACCGGTTTTCCCGGTAATCCGTATTTGCT (site GCTTGCCCTAC) | 0.00338
GCTTGCCCATGGACCGGTTTTCCCGGTAATCCGTATTTGCT (site GCTTGCCCTAG) | 0.858
GCTTGCCCATGGACCGGTTTTCCCGGTAATCCGTATTTGCT (site GCTTGCCCTAT) | 0.0783
GCTTGCGCATGGACCGGTTTTCCCGGTAATCCGTATTTGGT (site GCTTGCGCTAC) | 0.514
GCTTGCTCATGGACCGGTTTTCCCGGTAATCCGTATTTGAT (site GCTTGCACTAT) | 0.00386
GCTTGCTCATGGACCGGTTTTCCCGGTAATCCGTATTTGAT (site GCTTGCCCTAT) | 0
GCTTGCTCATGGACCGGTTTTCCCGGTAATCCGTATTTGAT (site GCTTGCGCTAT) | 0.00706
GCTTGCTCATGGACCGGTTTTCCCGGTAATCCGTATTTGAT (site GCTTGCTCTAT) | 1.46
GCTTGTCCATGGACCGGTTTTCCCGGTAATCCGTATTTGAT (site GCTTGACCTAT) | 0.00264
GCTTGTCCATGGACCGGTTTTCCCGGTAATCCGTATTTGAT (site GCTTGCCCTAT) | 0.021
GCTTGTCCATGGACCGGTTTTCCCGGTAATCCGTATTTGAT (site GCTTGGCCTAT) | 0
GCTTGTCCATGGACCGGTTTTCCCGGTAATCCGTATTTGAT (site GCTTGTCCTAT) | 0
GCTTGTTCATGGACCGGTTTTCCCGGTAATCCGTATTTGAA (site GCTTGTTCTTT) | 0.489
GCTTGTTCATGGACCGGTTTTCCCGGTAATCCGTATTTGCT (site GCTTGTTCTAG) | 1.84
GGAAACCCATGGACCGGTTTTCCCGGTAATCCGTATTTGCC (site GGAAACCCTGG) | 0
GGAACGACATGGACCGGTTTTCCCGGTAATCCGTATTTGAT (site GGAACGACTAT) | 1.43
GGAATGCCATGGACCGGTTTTCCCGGTAATCCGTATTTGCA (site GGAATGCCTTG) | 0
GGACAGCCATGGACCGGTTTTCCCGGTAATCCGTATTTGCA (site GGACAGCCTTG) | 1.07
GGACCATCATGGACCGGTTTTCCCGGTAATCCGTATTTGTC (site GGACCATCTGA) | 2.27
GGACCGGCATGGACCGGTTTTCCCGGTAATCCGTATTTGGG (site GGACCGGCTCC) | 0.0163
GGACTCACATGGACCGGTTTTCCCGGTAATCCGTATTTGTG (site GGACTCACTCA) | 0.00312
GGACTTCCATGGACCGGTTTTCCCGGTAATCCGTATTTGAA (site GGACTTCCTTT) | 1.42
GGAGACTCATGGACCGGTTTTCCCGGTAATCCGTATTTGGC (site GGAGACTCTGC) | 0.784
GGAGACTCATGGACCGGTTTTCCCGGTAATCCGTATTTGTG (site GGAGACTCTCA) | 1.74
GGAGAGGCATGGACCGGTTTTCCCGGTAATCCGTATTTGGT (site GGAGAGGCTAC) | 0.00324
GGAGAGGCATGGACCGGTTTTCCCGGTAATCCGTATTTGGT (site GGAGCGGCTAC) | 0.00751

Sequence | recombinant UMI read abundance (log10)
GGAGAGGCATGGACCGGTTTTCCCGGTAATCCGTATTTGGT (site GGAGGGGCTAC) | 0.0239
GGAGAGGCATGGACCGGTTTTCCCGGTAATCCGTATTTGGT (site GGAGTGGCTAC) | 0.0204
GGAGATCCATGGACCGGTTTTCCCGGTAATCCGTATTTGCA (site GGAGATCCTTG) | 0
GGAGATTCATGGACCGGTTTTCCCGGTAATCCGTATTTGTT (site GAAGATTCTAA) | 0
GGAGATTCATGGACCGGTTTTCCCGGTAATCCGTATTTGTT (site GCAGATTCTAA) | 0
GGAGATTCATGGACCGGTTTTCCCGGTAATCCGTATTTGTT (site GGAGATTCTAA) | 2.52
GGAGATTCATGGACCGGTTTTCCCGGTAATCCGTATTTGTT (site GTAGATTCTAA) | 0
GGAGCTTCATGGACCGGTTTTCCCGGTAATCCGTATTTGGC (site GGAGCTTCTGC) | 1.5
GGAGGACCATGGACCGGTTTTCCCGGTAATCCGTATTTGGG (site AGAGGACCTCC) | 0
GGAGGACCATGGACCGGTTTTCCCGGTAATCCGTATTTGGG (site CGAGGACCTCC) | 0.0177
GGAGGACCATGGACCGGTTTTCCCGGTAATCCGTATTTGGG (site GGAGGACCTCC) | 0.00471
GGAGGACCATGGACCGGTTTTCCCGGTAATCCGTATTTGGG (site TGAGGACCTCC) | 0.00615
GGAGGTTCATGGACCGGTTTTCCCGGTAATCCGTATTTGAT (site GGAGGTTCTAT) | 1.87
GGAGTAGCATGGACCGGTTTTCCCGGTAATCCGTATTTGTC (site GGAGTAGCTGA) | 1.98
GGAGTGGCATGGACCGGTTTTCCCGGTAATCCGTATTTGAT (site GGAGTGGCTAA) | 0.00289
GGAGTGGCATGGACCGGTTTTCCCGGTAATCCGTATTTGAT (site GGAGTGGCTAC) | 0.0174
GGAGTGGCATGGACCGGTTTTCCCGGTAATCCGTATTTGAT (site GGAGTGGCTAG) | 0
GGAGTGGCATGGACCGGTTTTCCCGGTAATCCGTATTTGAT (site GGAGTGGCTAT) | 1.87
GGAGTGGCATGGACCGGTTTTCCCGGTAATCCGTATTTGTT (site GGAGTGGCTAA) | 1.06
GGAGTGGCATGGACCGGTTTTCCCGGTAATCCGTATTTGTT (site GGAGTGGCTAC) | 0.00283
GGAGTGGCATGGACCGGTTTTCCCGGTAATCCGTATTTGTT (site GGAGTGGCTAG) | 1.76
GGAGTGGCATGGACCGGTTTTCCCGGTAATCCGTATTTGTT (site GGAGTGGCTAT) | 0.767
GGATAAACATGGACCGGTTTTCCCGGTAATCCGTATTTGCC (site GGATAAACTGG) | 2.49
GGATAAACATGGACCGGTTTTCCCGGTAATCCGTATTTGCC (site GGATACACTGG) | 1.01
GGATAAACATGGACCGGTTTTCCCGGTAATCCGTATTTGCC (site GGATAGACTGG) | 0
GGATAAACATGGACCGGTTTTCCCGGTAATCCGTATTTGCC (site GGATATACTGG) | 0
